Measurements from publication PMC10982999, “Structure-Guided Design and Optimization of Covalent VHL-Targeted Sulfonyl Fluoride PROTACs” (Journal of Medicinal Chemistry, 2024).

Molecular target: T1, VHL in HEK293T cells (Homo sapiens, UniProt P40337)
T1 construct: endogenous in cells; host or cells: HEK293T
Assay: Gel-based competition pull-down assay from live cells
Assay type: cell-based
Details: HEK293T cells pretreated 2 h at 37 °C; lysate treated with VHL-SF2-Biotin 50 μM 2 h
Method: Figure 2 (A) Structure of VHL-SF2. […] (E) Competition pull-down assay from live cells between VHL-SF2-Biotin and VHL-SF2. HEK293T cells were pretreated with DMSO or varying concentrations of VHL-SF2 for 2 h at 37 °C. The cells were lysed and treated with DMSO or VHL-SF2-Biotin (50 μM) for 2 h at room temperature. A pull-down with streptavidin beads was conducted, after which the protein was resolved on SDS/PAGE. VHL and loading control GAPDH levels were visualized by Western blotting.
Initially, we subjected VHL-SF2-Biotin to the streptavidin shift assay and observed a greater extent of VHL modification (44%) than for VHL-SF1-Biotin under the same conditions (Figure S2). […] Intact LC–MS analysis confirmed single labeling of VHL by VHL-SF2, with 65% conversion at 24 h (Figure S5). Although we attempted several site ID identification experiments by digesting the labeled recombinant VHL, the Ser110-containing peptide was not detected in the samples treated with VHL-SF2. This observation is consistent with a change in peptide properties that is incompatible with mass spectrometry detection compared to untreated samples (Table S2). […]
VCB (11.1 mg/ mL) was diluted with PBS pH 7.4 (2 µg/ mL). […] 10 µL of each sample was loaded onto the gel and the bands were quantified […]

In the case of `Cc1cc([C@H](C(=O)N2C[C@H](S(=O)(=O)F)C[C@H]2C(=O)N[C@@H](CC(=O)OC(C)(C)C)c2ccc(-c3scnc3C)cc2)C(C)C)on1` [VHL-SF2, tert-Butyl (S)-3-((2S,4R)-4-(Fluorosulfonyl)-1-((R)-3-methyl-2-(3-methylisoxazol-5-yl)butanoyl)pyrr-olidine-2-carboxamido)-3-(4-(4-methylthiazol-5-yl)phenyl)propanoate], the “pull-down of VHL by VHL-SF2-Biotin after compound pretreatment” value is reported as “dose-dependently competed”.
